Reference: patent US20020022022A1, “Inhibition of cell proliferation and matrix synthesis by antioxidants and NAD(P)H oxidase inhibitors” (priority 2000, published 2002)
“Also recorded” adds a separate entry of the source. Like-named read-outs stand apart in the source and are kept apart here.

What was measured:
[1] = tested on: —O2^− generation in coronary adventitial fibroblasts; test: Serum-induced —O2^− generation in coronary adventitial fibroblasts (NBT to formazan); type: cell-based, porcine
Description: —O2^− production in isolated adventitial fibroblasts: Adventitial fibroblasts (passage 2-6) are plated in 6-well plates at 100,000 cells/well in 10% FBS. Two (2) days later, when cells are ˜80% confluent, they are arrested in 0.5% FBS for the next 48 hours. Afterwards, they are stimulated with 10% FBS for 1-24 hours, followed by incubation with NBT (0.5 mg/ml in phenol-free DMEM) for one hour. After a brief washing, cells are trypsinized, and cell pellets are dissolved in 100% pyridine. The light absorbance is measured at 540 nm, and the NBT reduction to formazan is calculated as described above and corrected by cell number. Values are derived from 6-9 wells from three separate experiments.

adventitial fibroblasts = test: Cell proliferation assay, serum-stimulated adventitial fibroblasts (cell counting); type: cell-based, porcine; details: for effect on fibroblast growth (cell counting): 10% FBS, 3 days after treatment, concentration-dependent; for effect on serum-induced growth of vascular cells in vitro: serum-stimulated isolated vascular cells (fibroblasts and SMC, FIGS. 7A and 7B)
Description: (§1) Fibroblasts are isolated from the adventitia of porcine coronary arteries as described. (26) The cells (passage 2-6) are plated in triplicates at 10,000 cells/well in 24-well plates in DMEM supplemented with 10% FBS. At 24 hours later, cells are arrested in DMEM containing 0.5% FBS for 48 hours. Afterwards, they are stimulated with 10% FBS for 3 days with or without addition of indicated inhibitors. Cells are trypsinized at 72 hours after stimulation and counted in a Coulter counter. Values are derived from 3 wells/treatment and the experiments are repeated at least three times on separate occasions.

[2] = tested on: superoxide generation in injured coronary arteries; test: Superoxide generation in injured coronary arteries (SOD-inhibitable NBT reduction); type: cell-based, pigs; details: for Superoxide generation (SOD-inhibitable NBT reduction): rings pretreated 30 minutes, DPI 100 μM or L-NAME 1 mM; for effect on superoxide generation after coronary injury: injured coronary arteries, DPI 100 μM, L-NAME 1 mM
Excerpt: Domestic crossbred female pigs (12-15 kg) are anesthetized and instrumented, as previously described. (22,23) After the exposure of the right common carotid artery, heparin (5,000 U) is intravenously administered. […] The third artery is used as a control. The animals are euthanatized with intravenous […] Laboratory) at the times indicated in the text. […] Coronary arteries are dissected free from adipose tissue and myocardium and then cut into 5 mm rings and placed in 24-well plates. […] The reaction is terminated by addition of equal volume of 0.5N HCl, and tissues are rinsed twice with cold PBS. To extract formazan, tissues are pulverized in liquid nitrogen and dissolved in 100% pyridine at 80° C. for 30 minutes. After centrifugation, light absorbance is read in supernatants at 540 nm. The NBT reduction to formazan is calculated using the following formula: NBT reduction=[…]: absorbance; V: volume of solubilizing solution; T: time of incubation with NBT (minutes); […] L: length of light travel through the solution, 10 mm).

[3] = tested on: superoxide anion (—O2^−) generation in coronary adventitia; test: —O2^− production in uninjured coronary adventitia (SOD-inhibitable NBT reduction); type: cell-based, pigs; details: uninjured coronary rings pre-incubated with inhibitor; DPI 100 μM, ROT 50 μM, OXY 300 μM
Description: The production of —O2^− is measured by superoxide dismutase- (SOD) or tiron-inhibitable conversion of nitroblue tetrazolium (NBT) to formazan. (20,21)
—O2^− production in coronary arteries: Coronary arteries are dissected free from adipose tissue and myocardium and then cut into ˜5 mm rings and placed in 24-well plates. Tissues are balanced in phenol-free DMEM at 37° C. in a CO2 incubator for 30 minutes with or without addition of SOD (SOD, 1000 unit/ml) or tiron (10 mM), both scavengers of —O2^− Freshly made NBT (100 mg/L in phenol-free DMEM) is added to the tissues with a gentle rocking for 3 hours. The reaction is terminated by addition of equal volume of 0.5N HCl, and tissues are rinsed twice with cold PBS. To extract formazan, tissues are pulverized in liquid nitrogen and dissolved in 100% pyridine at 80° C. for 30 minutes. After centrifugation, light absorbance is read in supernatants at 540 nm. The NBT reduction to formazan is calculated using the following formula: NBT reduction=A×V/(T×E×L) (A: absorbance; V: volume of solubilizing solution; T: time of incubation with NBT (minutes); E: extinction coefficient=0.72 mmol.mm; L: length of light travel through the solution, 10 mm). Either SOD- or tiron-inhibitable NBT reduction is calculated as measures of —O2^− production (pmol/min/mg wet weight). To determine the pathways mediating —O2^− production, several inhibitors are used in the experiments, including diphenyleneiodonium (DPI, 100 μM), rotenone (ROT, 50 μM), oxypurinol (OXY, 300 μM), N^ω-nitro-L-arginine methyl ester (L-NAME, 1 mM), and diethyldithio-carbamic acid (DETCA, 10 mM). The n value represents the number of vascular rings obtained from at least 3 animals per experimental condition.

[4] = tested on: superoxide anion (—O2^−) in SVG; test: Superoxide anion in saphenous vein grafts (SOD-inhibitable NBT reduction); type: cell-based, pigs; details: SVG 2 weeks after surgery, DPI 100 μM; for effect on superoxide anion in SVG (SOD-inhibitable NBT reduction): L-NAME 1 mM
Description: A porcine model of a graft interposition in the common carotid artery is used as described. (49) Domestic crossbred pigs (n=22) weighing 35-50 kg are sedated with Telazol (3-5 mg/kg) and atropine (0.01 mg/kg) i.m. Anesthesia is maintained with Propofol, i.v. (15 mg/kg/hr). The animals are ventilated with 100% oxygen. Saphenous veins are harvested without distension and incubated for 30 minutes in saline containing nitroglycerine (0.5 mg/ml). Both carotid arteries are dissected free and heparin (150 U/kg) is administered i.v. A ˜2 cm section of the carotid artery is excised and reversed vein interposition grafting is performed. The excised carotid artery then is grafted into the contralateral carotid artery. Postoperative analgesia is provided with Buprenex (0.015 mg/kg) i.m. The animals are given aspirin 650 mg/day p.o. At the times indicated, animals are euthanized with Euthasol (80 mg/kg) i.v. and vascular tissues harvested.
Superoxide anion (—O2^−) production is measured by SOD-inhibitable conversion of NTB to formazan. (20,21) Normal saphenous veins, arteries, SVG, and AG are harvested at 2 weeks after surgery. After the removal of adventitia and endothelium, tissues are cut into ˜5 mm strips, placed in a 24-well plate, and balanced in pheno-free DMEM at 37° C. in CO2 for 30 minutes. Freshly made NBT (0.1 mg/ml in pheno-free DMEM) is added for 3 hours with or without addition of SOD (1000 U/ml). The reaction is terminated by 0.5N HCl and rinsing twice with cold PBS. To extract formazan, tissues are pulverized in liquid nitrogen, dissolved in 100% pyridine at 80° C. for 30 minutes, and centrifuged. Supernatants are read at 540 nm and NBT reduction is calculated as follows: NBT reduction=A×V/(T×E×L) (A: absorbance; V: volume of solubilizing solution; T: time of incubation with NBT (minutes); E: extinction coefficient=0.72 mmol.mm; L: length of light travel through the solution (10 mm).) The SOD-inhibitable NBT reduction is calculated as a measure of —O2^− (pmol/mg wet weight/min). In separate experiments, the inhibitors of oxidative enzymes are used, inlcuding diphenyleneiodonium (DPI, 100 μM) rotenone (ROT, 50 μμM), oxypurinol (OXY, 300 μμM) and N^ω-nitro-L-arginine methyl ester (L-NAME, 1 mM), to determine the origin of —O2^− in vascular grafts.

vascular SMC = test: Vascular SMC proliferation, serum-stimulated (cell counting); type: cell-based; details: 10% FBS, 3 days after treatment; concentration-dependent
Description: FIG. 7B. ROS and vascular SMC proliferation. SMC (10,000 cells/well) are arrested with 0.5% FBS for 48 hours and then stimulated with 10% FBS in the presence or absence of various inhibitors. Cell growth is examined at 3 days after treatment by cell counting. […] The experiments are repeated 3 times yielding similar results.
as §1

[5] = cited from earlier work
[6] = pretreated 30 minutes, 10% FBS for 3 hours, DPI 10 μM, SOD 500 U/ml

Row | Molecule | effect on fibroblast growth (cell counting) (adventitial fibroblasts) | effect on serum-induced growth of vascular cells in vitro (adventitial fibroblasts) | effect on superoxide anion in SVG (SOD-inhibitable NBT reduction) [4] | effect on SMC growth (cell counting) (vascular SMC) | effect on serum-induced —O2^− production [1, 6] | also measured
1 | c1ccc2c(c1)[I+]c1ccccc1-2 [DPI, diphenyleneiodonium] | significantly inhibits | significantly inhibits; also recorded: abrogates | significantly reduced | significantly inhibits | – | effect on serum-induced —O2^− production [1]: significant inhibition; also recorded: significant reduction; Superoxide generation (SOD-inhibitable NBT reduction) ([2]; 2 days after injury): 0.5 ± 0.9 pmol/mg/min; Superoxide generation (SOD-inhibitable NBT reduction) ([2]; 10 days after injury): 0.2 ± 0.3 pmol/mg/min; effect on superoxide generation after coronary injury [2]: almost entirely abolishes; effect on —O2^− generation in coronary adventitia (SOD-inhibitable NBT reduction) [3]: inhibits; also recorded: abolishes; reduction of —O2^− in SVG [4]: > 95%
2 | COC(=O)[C@@H](N)CCCNC(=N)N[N+](=O)[O-] [L-NAME, N^ω-nitro-L-arginine methyl ester] | – | no significant effects | no effects; also recorded: do not decrease | – | no effects | Superoxide generation (SOD-inhibitable NBT reduction) ([2]; 2 days after injury): 12.9 ± 9.4 pmol/mg/min; Superoxide generation (SOD-inhibitable NBT reduction) ([2]; 10 days after injury): 11.5 ± 6.1 pmol/mg/min; effect on superoxide generation after coronary injury [2]: shows no effect
3 | CC(=O)N[C@@H](CS)C(=O)O [NAC, N-acetylcysteine] | – | – | – | significantly inhibits | – | –
4 | O=c1[nH]c(=O)c2c[nH]nc2[nH]1 [OXY, oxypurinol] | – | no significant effects | do not decrease | – | no effects | effect on —O2^− generation in coronary adventitia (SOD-inhibitable NBT reduction) [3]: no inhibitory effects; also recorded: no effect; effect on superoxide anion in SVG (SOD-inhibitable NBT reduction) ([4]; listed as oxypurinol): no effects
5 | C=C(C)[C@H]1Cc2c(ccc3c2O[C@@H]2COc4cc(OC)c(OC)cc4[C@@H]2C3=O)O1 [ROT, rotenone] | – | – | do not decrease | – | no effects | effect on —O2^− generation in coronary adventitia (SOD-inhibitable NBT reduction) [3]: no inhibitory effects; also recorded: no effect; effect on superoxide anion in SVG (SOD-inhibitable NBT reduction) ([4]; listed as rotenone): no effects
6 | COc1cc(C(C)=O)ccc1O [apocynin, 4-hydroxy-3-methoxyacetopoenone] | – | – | – | significantly inhibits | – | –
7 | CCOC(=O)[C@H](CCc1ccccc1)N[C@@H](C)C(=O)N1[C@H](C(=O)O)C[C@@H]2CCC[C@@H]21 [ramipril] | – | – | – | – | – | cardiovascular mortality ([5]; chronic administration, HOPE trial): reduction
8 | O=S(=O)(O)c1cc(O)c(O)c(S(=O)(=O)O)c1 [tiron] | significantly inhibits | inhibits; also recorded: abrogates | – | significantly inhibits | – | –
9 | SOD: superoxide dismutase, exogenous enzyme; dismutation of —O2^− to H2O2 | no significant inhibition | does not prevent; also recorded: ineffective | – | no significant inhibition | significant inhibition; also recorded: significant reduction | –
10 | vitamin E | – | – | – | – | – | clinical results with antioxidant ([5]; clinical): largely negative
11 | CAT: catalase; removal of H2O2 (protein, UniProt P00432 2-527, looked up) Catalase: ADNRDPASDQMKHWKEQRAAQKPDVLTTGGGNPVGDKLNSLTVGPRGPLLVQDVVFTDEMAHFDRERIPERVVHAKGAGAFGYFEVTHDITRYSKAKVFEHIGKRTPIAVRFSTVAGESGSADTVRDPRGFAVKFYTEDGNWDLVGNNTPIFFIRDALLFPSFIHSQKRNPQTHLKDPDMVWDFWSLRPESLHQVSFLFSDRGIPDGHRHMNGYGSHTFKLVNANGEAVYCKFHYKTDQGIKNLSVEDAARLAHEDPDYGLRDLFNAIATGNYPSWTLYIQVMTFSEAEIFPFNPFDLTKVWPHGDYPLIPVGKLVLNRNPVNYFAEVEQLAFDPSNMPPGIEPSPDKMLQGRLFAYPDTHRHRLGPNYLQIPVNCPYRARVANYQRDGPMCMMDNQGGAPNYYPNSFSAPEHQPSALEHRTHFSGDVQRFNSANDDNVTQVRTFYLKVLNEEQRKRLCENIAGHLKDAQLFIQKKAVKNFSDVHPEYGSRIQALLDKYNEEKPKNAVHTYVQHGSHLSAREKANL | significantly inhibits | inhibits; also recorded: abrogates | – | significantly inhibits | – | –
